Entries after “also recorded” stand apart in the source; their conditions may differ. Where two headings read alike, the source gives them in different places.
Columns and labels:
Format in all cases: cell-based
[1] = system: breast cancer cell lines; assay: MTT cell proliferation assay, breast cancer cell lines; settings: single agents, all the breast cancer cell lines, 72 hours; read-out: IC50, growth and viability
Experimental: (§1) Cells were grown in 96-well plates with DNA ligase I/III inhibitor L67 (up to 60 μmol/L) and/or the PARP inhibitor ABT888 (up to 80 μmol/L) for 72 hours. Approximately 20 hours prior to evaluation, MTT labeling reagent (MTT in PBS; Roche) was added to each well. After incubating for 4 hours with the MTT labeling reagent, solubilization solution (10% SDS in 0.01 mol/L HCl; Roche) was added to solubilize the formazan salt crystals. The results were spectrophotometrically quantified by a VersaMax Microplate Reader at a wavelength of 550 nm and a reference wavelength of 650 nm. The effect of combining the DNA repair inhibitors was analyzed by determining the combination index (CI) described by Chou and Talalay (18, 19) with Calcusyn software (version 2.0; Biosoft). This calculation takes into account of both potency (median dose, Dm or IC50) and the shape of the dose-effect curve (the m value) to calculate the CI. L67 and ABT888 were combined at fixed ratios of doses that corresponded to 0.0001, 0.001, 0.005, 0.01, 0.05, 0.1, 0.5, 1, and 10 times the individual IC50 values. Synergy, additivity, and antagonism are defined as CI<1, CI ¼ 1, and CI>1, respectively.

[2] = system: MCF10A; assay: MTT cell proliferation assay, MCF10A; settings: single agents, 72 hours, read-out: IC50, growth
Experimental: as §1

[3] = system: tumorigenic cell lines (MCF7, TAM1, TAM2, TAM3, LTLT); assay: Colony survival assay, MCF7 and therapy-resistant derivatives; settings: L67 0.5 μmol/L or ABT888 0.125 μmol/L alone, 10-day growth, compared with MCF10A
Experimental: (§2) Cells were seeded at a density of 1,000 cells per well in methylcellulose-based medium in the presence of DNA ligase I/III inhibitor, L67 (0.5 μmol/L; ref. 10); PARP inhibitor, ABT888 (0.125 μmol/L); or L67 (0.5 μmol/L) and ABT888 (0.125 μmol/L) for approximately 10 days. Colonies were stained with 2-(4-iodophenyl)-3-(4-nitrophenyl)-5-phenlytetrazolium chloride (1 mg/mL) for 16 to 24 hours before evaluation. Vital colonies were counted with an automated image analysis system (Omincon FAS IV, BIOSYS GmbH). Experiments were conducted at least 3 times, and results are representative of the mean of 3 independent experiment ±SEM.

[4] = system: MCF7 cells following siRNA knockdown of Ku70; assay: Colony survival assay, MCF7 after siRNA knockdown of Ku70; settings: Ku70 knockdown versus siRNA control, 1 μmol/L, 10-day growth
Experimental: as §2
Target plus SMART pool siRNA oligonucleotides for G22P1, DNA ligase III, and Ku70 mRNAs were purchased from Dharmacon RNA Technologies. The oligonucleotides were transiently transfected into cells with Amaxa Nucleofector Kit V (VCA-1003) in Nucleofector II Amaxa Biosystems. For transfection, […] of 20 μmol/L siRNA was used per 2×10^6 cells. […] Cells were harvested for Western blotting 72 hours after transfection. siRNA nontargeting pool (Dharmacon RNA Technologies) was used as a control.

Row | SMILES | IC50 [1] | IC50 [2] | colony survival, inhibitor alone [3] | sensitivity (colony survival) [4] | IC50 ([2]; Homo sapiens, MCF-10A)
1 | Cc1c(Br)cc(NCC(=O)NN=Cc2cc([N+](=O)[O-])ccc2O)cc1Br [L67] | ~6 µM | ~6 µM | small reductions; also recorded: little effect | – | –
2 | CC/C(=C(\c1ccccc1)c1ccc(OCCN(C)C)cc1)c1ccccc1 [tamoxifen] | – | – | – | decreased sensitivity | –
3 | N#Cc1ccc(C(c2ccc(C#N)cc2)n2cncn2)cc1 [letrozole] | – | – | – | decreased sensitivity | –
4 | C[C@]1(c2nc3c(C(N)=O)cccc3[nH]2)CCCN1 [ABT888, Veliparib] | ~8 µM | – | small reductions | – | ~10 µM
